Assay results reported in ChEMBL document CHEMBL5727751, “Use of aza-tryptanthrin derivatives as inhibitors of IDO1 and/or TDO” (2020).

target: Indoleamine 2,3-dioxygenase 1 (Homo sapiens, UniProt P14902); assay: Indoleamine-2,3-Dioxygenase 1 Inhibitory Activity: Experimental method: IDO-1 can oxidatively cleave the indole ring of tryptophan to form N-formylkynurenine. Referring to the method in the literature (Eddy W. Yue, et al. J. Med. Chem. 2009, 52, 7364-7367), 20 nM IDO-1, 2 mM D-tryptophan, 20 mM ascorbic acid, 3.5M methyl blue and 0.2 mg/mL antioxidant enzyme were sequentially added to 50 mM potassium phosphate buffer at room temperature. Due to the formation of N-formylkynurenine, the reaction rate was recorded by the increasing absorbance of the solution at 321 nm. IC50 values were calculated using Prism GraphPad software.
Sequence (P14902 whole entry): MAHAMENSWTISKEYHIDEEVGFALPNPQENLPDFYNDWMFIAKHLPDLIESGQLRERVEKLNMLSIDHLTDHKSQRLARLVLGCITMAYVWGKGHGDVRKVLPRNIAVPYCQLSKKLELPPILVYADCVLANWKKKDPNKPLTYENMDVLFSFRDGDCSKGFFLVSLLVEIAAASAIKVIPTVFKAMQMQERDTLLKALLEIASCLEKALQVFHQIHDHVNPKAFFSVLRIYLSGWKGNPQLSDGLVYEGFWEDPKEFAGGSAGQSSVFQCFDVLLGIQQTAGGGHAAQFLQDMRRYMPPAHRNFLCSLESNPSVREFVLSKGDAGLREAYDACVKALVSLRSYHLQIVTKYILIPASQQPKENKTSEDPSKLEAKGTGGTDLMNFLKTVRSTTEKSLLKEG

Row | Structure (SMILES) | IC50
1 | O=C1c2cc([N+](=O)[O-])ccc2-n2c1nc1ncccc1c2=O | 1 to 100 nM
2 | CN(C)CCON=C1c2cc([N+](=O)[O-])ccc2-n2c1nc1ncccc1c2=O | 1 to 100 nM
3 | O=C1c2cc(Cl)ccc2-n2c1nc1ncccc1c2=O | 1 to 100 nM
4 | O=C1c2cc(OC(F)(F)F)ccc2-n2c1nc1ncccc1c2=O | 1 to 100 nM
5 | O=C1c2cc(F)ccc2-n2c1nc1ncccc1c2=O | 1 to 100 nM
6 | O=C1c2cnccc2-n2c1nc1ncccc1c2=O | 1 to 100 nM
7 | N=C(N)NN=C1c2cc([N+](=O)[O-])ccc2-n2c1nc1ncccc1c2=O | 1 to 100 nM
8 | CN(C)C(=S)NN=C1c2cc([N+](=O)[O-])ccc2-n2c1nc1ncccc1c2=O | 1 to 100 nM
9 | NC(=S)NN=C1c2cc([N+](=O)[O-])ccc2-n2c1nc1ncccc1c2=O | 1 to 100 nM
